# Reference: ChEMBL document CHEMBL1201862, “PubChem BioAssay data set” (2004)
#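 Compound exposure: 48 hours, 5 concentrations, 96-well plates. GI50 marks 50% less growth.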 The source made the active and inactive calls. No stated cut-off is given here; in the data, active = GI50 up to about 1.1 µM and inactive = higher.
# Tests used:
# Experiment in all cases: growth of human tumour cells (NCI), 48 h
# OVCAR-3 = tested on: OVCAR-3
# SK-OV-3 = tested on: SK-OV-3
# NCI-H460 = tested on: NCI-H460
# RPMI-8226 = tested on: RPMI-8226
# SF-295 = tested on: SF-295
# SNB-75 = tested on: SNB-75
# CAKI-1 = tested on: CAKI-1
# Hs-578T = tested on: Hs-578T
# IGROV-1 = tested on: IGROV-1
# MDA-MB-231 = tested on: MDA-MB-231
# EKVX = tested on: EKVX
# TK-10 = tested on: TK-10
# HCT-116 = tested on: HCT-116
# HOP-92 = tested on: HOP-92
# SW-620 = tested on: SW-620
# UACC-62 = tested on: UACC-62
# CCRF-CEM = tested on: CCRF-CEM
SMILES,GI50 (OVCAR-3),GI50 (SK-OV-3),GI50 (NCI-H460),GI50 (RPMI-8226),GI50 (SF-295),GI50 (SNB-75),GI50 (CAKI-1),GI50 (Hs-578T),GI50 (IGROV-1),GI50 (MDA-MB-231),GI50 (EKVX),GI50 (TK-10),GI50 (HCT-116),GI50 (HOP-92),GI50 (SW-620),GI50 (UACC-62),GI50 (CCRF-CEM)
O=C(Nc1ccc2oc(=O)c(C(=O)O)cc2c1)Oc1ccccc1,> 100 µM (inactive),> 100 µM (inactive),> 100 µM (inactive),> 100 µM (inactive),> 100 µM (inactive),> 100 µM (inactive),> 100 µM (inactive),> 100 µM (inactive),> 100 µM (inactive),> 100 µM (inactive),> 100 µM (inactive),> 100 µM (inactive),> 100 µM (inactive),> 100 µM (inactive),> 100 µM (inactive),> 100 µM (inactive),–
CC(C)(C)c1ccc(-c2nnc(SCc3ccc(Cl)cc3)n2-c2cccc(C(F)(F)F)c2)cc1,1.87 µM (inactive),8.32 µM (inactive),7.23 µM (inactive),4.61 µM (inactive),8.43 µM (inactive),27.5 µM (inactive),73.5 µM (inactive),45.8 µM (inactive),26.9 µM (inactive),> 69 µM (inactive),8.51 µM (inactive),39.4 µM (inactive),4.71 µM (inactive),19.8 µM (inactive),15.9 µM (inactive),22.5 µM (inactive),7.87 µM (inactive)
Nc1nnc2oc3ccc4ccccc4c3cc1-2,34.8 µM (inactive),67.5 µM (inactive),27 µM (inactive),30.5 µM (inactive),26.4 µM (inactive),21.4 µM (inactive),48.8 µM (inactive),54.5 µM (inactive),30.6 µM (inactive),24.5 µM (inactive),33.2 µM (inactive),42 µM (inactive),34.4 µM (inactive),26.2 µM (inactive),36.1 µM (inactive),29 µM (inactive),24.5 µM (inactive)
CC/C(Cl)=N\OC(=O)Nc1ccc(OC)cc1,5.68 µM (inactive),17.5 µM (inactive),20.2 µM (inactive),1.9 µM (inactive),17 µM (inactive),6.27 µM (inactive),1.65 µM (inactive),14.4 µM (inactive),6.71 µM (inactive),7.06 µM (inactive),5.9 µM (inactive),5.43 µM (inactive),5.86 µM (inactive),2.43 µM (inactive),2.7 µM (inactive),8.57 µM (inactive),1.75 µM (inactive)
CCOC(=O)c1ccc(Nc2nc3ccc(C(F)(F)F)cc3nc2C(=O)OCC)cc1,> 100 µM (inactive),> 100 µM (inactive),> 100 µM (inactive),> 100 µM (inactive),> 100 µM (inactive),95.3 µM (inactive),81.3 µM (inactive),32.9 µM (inactive),> 100 µM (inactive),> 100 µM (inactive),> 100 µM (inactive),> 100 µM (inactive),> 100 µM (inactive),> 100 µM (inactive),> 100 µM (inactive),> 100 µM (inactive),> 100 µM (inactive)
CCOC(=O)C1(C#N)OC(=O)c2cnccc21 (stereo not given),> 100 µM (inactive),> 100 µM (inactive),> 100 µM (inactive),> 100 µM (inactive),> 100 µM (inactive),> 100 µM (inactive),> 100 µM (inactive),> 100 µM (inactive),> 100 µM (inactive),> 100 µM (inactive),> 100 µM (inactive),–,> 100 µM (inactive),> 100 µM (inactive),> 100 µM (inactive),> 100 µM (inactive),> 100 µM (inactive)
CCOc1ccc(Nc2nc3c(s2)C(=O)c2ccccc2C3=O)cc1,3.04 µM (inactive),19.7 µM (inactive),15 µM (inactive),3.85 µM (inactive),10.7 µM (inactive),11.1 µM (inactive),8.41 µM (inactive),12.1 µM (inactive),11.9 µM (inactive),2.33 µM (inactive),20 µM (inactive),20.8 µM (inactive),13.2 µM (inactive),12.3 µM (inactive),3.21 µM (inactive),2.24 µM (inactive),7.82 µM (inactive)
O=[N+]([O-])c1ccc(O)c(/C=N/NC(=S)N2CCCCC2)c1,2.24 µM (inactive),4.8 µM (inactive),4.81 µM (inactive),2.79 µM (inactive),3.01 µM (inactive),4.22 µM (inactive),3.51 µM (inactive),13.8 µM (inactive),1.67 µM (inactive),5.89 µM (inactive),2.42 µM (inactive),4.98 µM (inactive),3.21 µM (inactive),4.17 µM (inactive),3.13 µM (inactive),3.3 µM (inactive),0.728 µM (active)
CCOC(=O)c1cc2cc(CSc3ccccc3)ccc2oc1=O,96.6 µM (inactive),> 100 µM (inactive),> 100 µM (inactive),51.9 µM (inactive),43.4 µM (inactive),38.4 µM (inactive),> 100 µM (inactive),52.1 µM (inactive),> 100 µM (inactive),52.6 µM (inactive),> 100 µM (inactive),57.9 µM (inactive),> 100 µM (inactive),> 100 µM (inactive),> 100 µM (inactive),45.9 µM (inactive),> 100 µM (inactive)
C=CCC1=CC2(OC)C(=O)C(OC)(OC)C1C1C(OC)(OC)C(=O)C(OC)=CC12CC=C (stereo not given),> 100 µM (inactive),67.8 µM (inactive),> 100 µM (inactive),> 100 µM (inactive),> 100 µM (inactive),> 100 µM (inactive),> 100 µM (inactive),> 100 µM (inactive),> 100 µM (inactive),> 100 µM (inactive),> 100 µM (inactive),> 100 µM (inactive),> 100 µM (inactive),> 100 µM (inactive),> 100 µM (inactive),> 100 µM (inactive),> 100 µM (inactive)
CC1=NN(c2ccc(S(=O)(=O)O)cc2)C(=O)/C1=C/c1ccc(Cl)cc1.c1ccncc1,> 100 µM (inactive),> 100 µM (inactive),> 100 µM (inactive),> 100 µM (inactive),> 100 µM (inactive),> 100 µM (inactive),> 100 µM (inactive),> 100 µM (inactive),> 100 µM (inactive),> 100 µM (inactive),> 100 µM (inactive),> 100 µM (inactive),> 100 µM (inactive),> 100 µM (inactive),> 100 µM (inactive),> 100 µM (inactive),> 100 µM (inactive)
COC(=O)/C=C\S/C(=C(/c1ccccc1)n1ccc(C(=O)OC)n1)c1ccccc1,–,19.9 µM (inactive),66.4 µM (inactive),38.9 µM (inactive),20.3 µM (inactive),6.04 µM (inactive),> 100 µM (inactive),26.6 µM (inactive),58.6 µM (inactive),9.82 µM (inactive),26.5 µM (inactive),25.6 µM (inactive),20.5 µM (inactive),20.9 µM (inactive),82.8 µM (inactive),3.23 µM (inactive),–
CN(Cc1nc2c(N)nc(N)nc2nc1N)c1ccc(C(=O)NC(CCC(=O)O)C(=O)O)cc1 (stereo not given),> 100 µM (inactive),> 100 µM (inactive),< 0.0122 µM (active),> 75.2 µM (inactive),0.162 µM (active),7.45 µM (inactive),0.0322 µM (active),> 19.8 µM (inactive),3.07 µM (inactive),> 100 µM (inactive),–,0.752 µM (active),< 0.01 µM (active),> 100 µM (inactive),0.033 µM (active),0.0603 µM (active),< 0.01 µM (active)
CC(=O)OCC(OC(C)=O)C(OC(C)=O)C(OC(C)=O)C(/C=N\Nc1nc2ccccc2c(=O)[nH]1)OC(C)=O (stereo not given),> 100 µM (inactive),> 100 µM (inactive),> 100 µM (inactive),> 100 µM (inactive),> 100 µM (inactive),27.6 µM (inactive),> 100 µM (inactive),> 100 µM (inactive),–,> 100 µM (inactive),54.7 µM (inactive),–,> 100 µM (inactive),> 100 µM (inactive),> 100 µM (inactive),> 100 µM (inactive),> 100 µM (inactive)
COC12c3ccccc3-c3ccccc3C1[C@H]1C(=O)OC(=O)[C@H]12 (stereo not given in full),> 10 µM (inactive),> 10 µM (inactive),> 10 µM (inactive),> 10 µM (inactive),> 10 µM (inactive),> 10 µM (inactive),> 10 µM (inactive),> 10 µM (inactive),> 10 µM (inactive),> 10 µM (inactive),> 10 µM (inactive),> 10 µM (inactive),–,> 10 µM (inactive),> 10 µM (inactive),–,> 10 µM (inactive)
O=[N+]([O-])c1nccn1CCCNc1c2ccccc2[n+]([O-])c2ccccc12,> 100 µM (inactive),> 100 µM (inactive),51.3 µM (inactive),> 100 µM (inactive),> 100 µM (inactive),> 100 µM (inactive),> 100 µM (inactive),> 100 µM (inactive),51.9 µM (inactive),> 100 µM (inactive),> 100 µM (inactive),> 100 µM (inactive),> 100 µM (inactive),27.5 µM (inactive),> 100 µM (inactive),> 100 µM (inactive),> 100 µM (inactive)
CC(=O)OC1CC2CC(=O)CC1N2C (stereo not given),> 100 µM (inactive),> 100 µM (inactive),> 100 µM (inactive),68.7 µM (inactive),> 100 µM (inactive),> 100 µM (inactive),> 100 µM (inactive),> 100 µM (inactive),> 100 µM (inactive),> 100 µM (inactive),> 100 µM (inactive),> 100 µM (inactive),> 100 µM (inactive),> 100 µM (inactive),> 100 µM (inactive),> 100 µM (inactive),> 100 µM (inactive)
